The values below come from the METLIN SMRT retention time set (Domingo-Almenara et al. 2019).

Each structure is given as a SMILES string.

The nature of the data set: gradient 5% acetonitrile 3 min, to 50% in 2 min, to 85% in 15 min, held 3 min, 100 µL/min. The note with it: column: Zorbax Extend-C18 2.1 x 50 mm; eluents: water / acetonitrile, 0.1% formic acid. The gist of the method:
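The mobile phases were water and acetonitrile, each with 0.1% formic acid, pumped at 100 μL/min through a Zorbax Extend-C18 column (2.1 × 50 mm, 1.8 μm). Pure standards were injected as mixtures of ~100 molecules and detected by a quadrupole time-of-flight mass spectrometer in positive and negative ionization mode. Retention time came from computationally picked adduct peaks, each inspected by hand.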
In turn, `Cc1cc(C)cc(NC(=O)C2CCN(c3nccnc3Sc3cccc(C)c3)CC2)c1` returned an RP-LC retention time of 1150 s.

`Cn1c(CCNC(=O)c2ccc(Cl)s2)nc2cccnc21` displayed an RP-LC retention time of 626 s.

In turn, `Cc1cc(C(=O)Nc2ccc(C)c(F)c2)n(CC(=O)Nc2ccc(F)cc2)n1` registered an RP-LC retention time of 922 s.

`O=C(CNC(=O)c1cccc(Cl)c1)Nc1nc2ccccc2[nH]1` registered an RP-LC retention time of 646 s.

`Cc1ccc(CNC(=O)C2(C)CCN(C(=O)c3ccccc3C(F)(F)F)CC2)cc1` came in with an RP-LC retention time of 894 s.

In turn, `O=C(NCCc1csc(C2CCN(C(=O)C3CCCCC3)CC2)n1)C1CCC1` returned an RP-LC retention time of 720 s.

Take `Cc1ccn2cc(CNS(=O)(=O)c3ccc(-c4ccccc4)cc3)nc2c1`: the RP-LC retention time was found to be 588 s.

As for `Cc1ccc(Cl)cc1NC(=O)N1CCCC(C)(C(=O)NCc2ccccc2)C1` (centres undefined), the RP-LC retention time amounted to 1040 s.

As to `Cc1ccccc1CNC(=O)c1nnc(-c2ccc(S(=O)(=O)N(C)C)cc2)o1`, the RP-LC retention time came out at 874 s.

`Cc1ccc2nc(C(=O)NCc3ccccc3C)cn2c1` returned an RP-LC retention time of 686 s.

Consider `Cc1nc(N2CCN(c3ccccn3)CC2)nc2c1C(=O)CC(c1ccccc1)C2` (centres undefined), for which the RP-LC retention time is 757 s.

With `CCc1ccc(S(=O)(=O)Nc2cccc(-c3cn4c(C)cccc4n3)c2)cc1`, the RP-LC retention time was 667 s.

Regarding `Cc1cc2c(cc1S(=O)(=O)N1CCCC1C(=O)Nc1ccc3c(c1)OCCO3)OCC(=O)N2` (centres undefined), the RP-LC retention time was 700 s.

For the compound `Cc1cccc(CNC2=NCCNC23CCN(S(=O)(=O)c2c(C)cc(C)cc2C)CC3)c1`, the RP-LC retention time came to 846 s.

With `COc1cccc(-c2noc(Cc3nnc(-c4cccc(Cl)c4)o3)n2)c1OC`, the RP-LC retention time is 1000 s.

`O=C1NC(C(=O)NCc2cccs2)Cn2cccc21` (centres undefined) registered an RP-LC retention time of 620 s.

With `COc1ccc(OC)c(CNC(=O)c2nc(N3CCCC3)c3ccccc3n2)c1`, the RP-LC retention time is 707 s.

The compound `CN(C)C(=O)c1ccc2c(c1)n(Cc1cccc(F)c1)c(=O)c1ccnn12` registered an RP-LC retention time of 801 s.

Take `Cc1nc2ccn(Cc3cccnc3)c(=O)c2cc1C(=O)NCCc1ccco1`: the RP-LC retention time worked out at 598 s.

Compound `Cc1noc(C)c1C1CCCN1C(=O)c1ccc2c(c1)OCO2` (centres undefined) came in with an RP-LC retention time of 722 s.

Compound `CN1CCC(NC(=O)C2CCN(c3nc4ccc(-c5cccs5)nc4s3)CC2)CC1` registered an RP-LC retention time of 654 s.

`Cc1nn(CC(=O)NCCc2ccco2)c(=O)c2nn(-c3ccccc3)c(C)c12` showed an RP-LC retention time of 758 s.

With `O=C(NC1CCCC1)C1CCCN(S(=O)(=O)c2cc(-c3noc(C4CCCC4)n3)cs2)C1` (centres undefined), the RP-LC retention time was determined as 1120 s.

Regarding `CCc1nn2c(nnc3c(=O)n(CCc4c[nH]c5ccccc45)ccc32)c1-c1ccccc1`, the RP-LC retention time came out at 1010 s.

In turn, `CN1C(=O)CCc2cc(NC(=O)Cc3ccccc3Cl)ccc21` displayed an RP-LC retention time of 755 s.

`O=C(Nc1ccc(F)cc1)N1CCCC1c1nc(-c2cccc(F)c2)no1` (centres undefined) registered an RP-LC retention time of 965 s.

As for `COc1ccc(-c2nnc(COc3cccc(NC(=O)c4ccoc4)c3)o2)cc1`, the RP-LC retention time was found to be 866 s.

Consider `COc1cc(NC(=O)Nc2nccn(-c3ccc(C)c(Cl)c3)c2=O)cc(OC)c1`, for which the RP-LC retention time stood at 1060 s.

Consider `CCCCC(=O)Nc1ccc2nc(N3CCN(CC)CC3)cc(C(=O)O)c2c1`, for which the RP-LC retention time was 571 s.

Compound `O=C(Cn1c(=O)cnc2cc(C(=O)NC3CCCC3)ccc21)NCc1ccc(F)cc1F` showed an RP-LC retention time of 721 s.

Consider `Cc1cccc(-c2noc(C3CCCN3S(=O)(=O)c3ccc(C)c(Cl)c3)n2)c1` (centres undefined), for which the RP-LC retention time worked out at 1270 s.

In turn, `Cc1ccc(-c2csc(-n3nc(C)c(CC(=O)Nc4cc(Cl)ccc4C)c3C)n2)cc1` showed an RP-LC retention time of 982 s.

The compound `CCOC(=O)c1coc(NC(=O)Nc2cccs2)n1` came in with an RP-LC retention time of 706 s.

In turn, `CCOC(=O)CNC(=O)N(C)CCc1noc(-c2ccc(F)cc2)n1` showed an RP-LC retention time of 742 s.

As for `O=C(Cn1ccn2nc(-c3ccc(F)cc3)c(CO)c2c1=O)Nc1cc(F)ccc1Cl`, the RP-LC retention time amounted to 894 s.

Compound `CCOc1nccnc1NC1CCN(C(=O)c2ccn(CC)n2)CC1` came in with an RP-LC retention time of 669 s.

`COc1ccc(-n2c(=O)c(C(=O)NCC3CCCO3)c(O)c3cccnc32)cc1` (centres undefined) had an RP-LC retention time of 947 s.

`CCN(CC)C(=O)c1ccc2oc(CN3CCN(C(=O)NCc4ccco4)CC3)nc2c1`: the RP-LC retention time was 626 s.

Turning to `CC(=O)c1cccc(NC(=O)Cn2c(=O)n(-c3ccc(F)cc3)c(=O)c3c2cc(C)n3C)c1`, the RP-LC retention time turned out to be 910 s.

As for `Cc1ccsc1C(=O)N1CCN(c2ccc(-c3nc(C)c(C)s3)cn2)CC1`, the RP-LC retention time was determined as 1120 s.

The compound `CCc1nc2cc(-c3noc(COc4ccc(OC)cc4)n3)ccc2o1` showed an RP-LC retention time of 1070 s.

Compound `CCCSCCCNC(=O)c1cc2n(n1)CCCN(Cc1ccc(F)cc1)C2=O` registered an RP-LC retention time of 827 s.

Take `Fc1ccc(C2Cn3nnc(-c4nc(-c5cccnc5)no4)c3CO2)cc1` (centres undefined): the RP-LC retention time came out at 896 s.

The compound `CN1CCN(C(=O)C2(C)CC(c3ccccc3)=NO2)CC1` (centres undefined) returned an RP-LC retention time of 608 s.

As to `COc1ccc(S(=O)(=O)N2CCC(n3cnnc3-c3ccccc3)CC2)cc1OC`, the RP-LC retention time worked out at 718 s.

For `O=C(/C=C/c1ccccc1)NC(Cc1ccccc1)C(=O)N1CCN(c2ccccn2)CC1` (centres undefined), the RP-LC retention time is 692 s.

As to `Cc1ccc(NC(=O)C2CCCN(c3cc(=O)n(C)c(=O)n3C)C2)nc1` (centres undefined), the RP-LC retention time turned out to be 597 s.

As to `CN(C)C(=O)CN1CCN(c2ccccc2)CC1`, the RP-LC retention time was determined as 792 s.

As for `CCSc1nnnn1-c1ccc(NC(=O)c2ccc3nnsc3c2)cc1`, the RP-LC retention time amounted to 838 s.

In turn, `COCCNC(=O)Cn1nc(C)c2sc(-c3ccccc3)nc2c1=O` showed an RP-LC retention time of 682 s.

As to `CCOC(=O)C1CCN(C(=O)c2cc(-c3ccc(C)c(C)c3)[nH]c2C)CC1`, the RP-LC retention time is 973 s.

`Cc1cccc(-n2c(=O)c3c(cc(C)n3C)n(CC(=O)Nc3ccc4c(c3)OCO4)c2=O)c1`: the RP-LC retention time turned out to be 837 s.

Regarding `CC(C)c1nncn1C1CCN(S(=O)(=O)c2ccccc2F)CC1`, the RP-LC retention time turned out to be 692 s.

With `Cc1cccc(NC(=O)Cn2nc3c(Oc4cccc(F)c4)nccn3c2=O)c1`, the RP-LC retention time amounted to 864 s.

Compound `COc1ccc(C2CC(=O)N(c3ccc(C)c(Cl)c3)C(=O)C2)cc1` displayed an RP-LC retention time of 1010 s.

For the compound `Cc1ccc(NC(=O)c2cccc([N+](=O)[O-])c2)c(C)c1`, the RP-LC retention time was found to be 830 s.

`COc1ccc(-c2nnc3n2CCN(Cc2scnc2C)C3)cc1` registered an RP-LC retention time of 657 s.

In the case of `O=S(=O)(c1cc(F)ccc1F)N1CCc2nc(-c3ccccc3)ncc2C1`, the RP-LC retention time came to 1070 s.

In turn, `O=C(N[C@@H]1CN(C2CCOCC2)C[C@H]1CO)c1ccc2c(c1)OCO2` displayed an RP-LC retention time of 566 s.

With `CN1C(=O)CCc2cc(NS(=O)(=O)c3ccc(F)c(F)c3)ccc21`, the RP-LC retention time worked out at 781 s.

The compound `CCOC(=O)c1nc(Nc2ccccc2F)c2ccccc2n1` yielded an RP-LC retention time of 812 s.

`CCN(CC)C(=O)Cn1c(Cc2ccc(Cl)cc2)nc2ccccc21` displayed an RP-LC retention time of 693 s.

`Cc1nc2cccnc2n1C1CCN(C(=O)Nc2ccc(Br)cc2)CC1` gave an RP-LC retention time of 669 s.

On to `CCOC(=O)C1CCN(C(=O)C2CCCN(S(=O)(=O)c3ccc(OC)c(Cl)c3)C2)CC1` (centres undefined), for which the RP-LC retention time turned out to be 940 s.

For `c1ccc(-c2nc(-c3cnccn3)no2)c(OC2CCN(Cc3ccc4c(c3)CCO4)C2)c1` (centres undefined), the RP-LC retention time was determined as 689 s.

In the case of `CCNC(=O)Nc1ccc(OCC(=O)NC(C)c2cccc(OC)c2)nc1` (centres undefined), the RP-LC retention time was 686 s.

In turn, `Cc1ccc(C)c(NC(=O)N2CCN(CCn3c(-c4ccncc4)nc4cccnc43)CC2)c1` showed an RP-LC retention time of 608 s.

For `O=C(Cc1cccc(Cl)c1)NC1CCN(c2cc(-c3cccs3)[nH]n2)C1` (centres undefined), the RP-LC retention time was found to be 702 s.

`CCc1noc(-c2cnc3nc(C)ccc3c2NCc2cc(OC)ccc2OC)n1` displayed an RP-LC retention time of 735 s.

`O=C(Nc1cccc(NC(=O)c2cccc(O)c2O)c1)c1cccc(O)c1O` registered an RP-LC retention time of 765 s.

`CCOc1cccc(-c2noc(Cn3cnc4c(nnn4-c4ccccc4OC)c3=O)n2)c1` returned an RP-LC retention time of 979 s.

On to `Cc1nn(-c2ccccc2)c2c1N(CCCC(=O)NCCN(C)C)C(=O)CS2`, for which the RP-LC retention time amounted to 602 s.

Compound `CSc1cccc(NC(=O)N2CCCC2c2nc(-c3ccc(F)cc3)no2)c1` (centres undefined) showed an RP-LC retention time of 1040 s.

The compound `CCc1nnc(-c2ccc3ccn(CC(=O)N4CCN(c5ccccc5)CC4)c3c2)o1` showed an RP-LC retention time of 858 s.

Compound `CSc1nnc(-c2nn(C)c3c2CN(C(=O)c2ccc(Cl)cc2)CC3)n1C` showed an RP-LC retention time of 736 s.

With `CCCC(=O)Nc1nc(-c2ccc(Br)s2)cs1`, the RP-LC retention time is 993 s.

As for `CCCCOc1ccc(-c2cc3c4nnc(CCC(=O)NCc5ccccc5C)n4ccn3n2)cc1`, the RP-LC retention time is 1010 s.

In turn, `COCC(=O)N1CCCN(C2=NS(=O)(=O)C(c3ccccc3)=C2C)CC1` displayed an RP-LC retention time of 662 s.

`O=C(NCC1(CO)CC1)c1cc(-c2ccccc2)on1` gave an RP-LC retention time of 703 s.
